Assay [1] concerns the target T1, Growth factor receptor-bound protein 2 (Homo sapiens, UniProt P62993). The assay is described as follows: Inhibition of binding to Grb2 SH2 domain.
Assay [2] deals with T1, Growth factor receptor-bound protein 2. The assay is described as follows: Inhibition of binding to Growth factor receptor bound protein 2 (Grb2) SH2 domain.
Assay [3] addresses Tyrosine-protein kinase Lck (Homo sapiens, UniProt P06239). The experiment in a line: Inhibition of binding to p56 Lck tyrosine kinase SH2 domain.
In assay [4] the target is T2, Tyrosine-protein phosphatase non-receptor type 11 (Homo sapiens, UniProt Q06124).
T2 sequence (Q06124 whole entry): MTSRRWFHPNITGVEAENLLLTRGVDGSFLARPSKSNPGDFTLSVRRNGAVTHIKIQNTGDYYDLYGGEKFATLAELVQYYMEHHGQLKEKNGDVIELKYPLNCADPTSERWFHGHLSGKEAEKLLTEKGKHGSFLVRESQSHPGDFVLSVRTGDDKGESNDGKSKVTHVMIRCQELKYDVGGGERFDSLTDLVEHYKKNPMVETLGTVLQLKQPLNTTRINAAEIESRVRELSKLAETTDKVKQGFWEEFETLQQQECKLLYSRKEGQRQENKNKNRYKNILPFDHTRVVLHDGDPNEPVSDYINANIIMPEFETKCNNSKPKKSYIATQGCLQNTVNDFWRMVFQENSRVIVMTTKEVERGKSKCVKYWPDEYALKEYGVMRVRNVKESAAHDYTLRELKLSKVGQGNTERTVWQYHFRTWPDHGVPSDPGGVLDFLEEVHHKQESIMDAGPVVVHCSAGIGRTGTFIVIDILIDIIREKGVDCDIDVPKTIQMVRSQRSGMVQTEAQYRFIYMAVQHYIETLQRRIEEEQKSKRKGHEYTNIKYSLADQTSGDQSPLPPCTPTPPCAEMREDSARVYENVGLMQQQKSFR
The experiment in a line: Inhibition of interaction between the activated tyrosine kinase receptors and Shp2 SH2 domains in the Ras signal transduction pathway.

The nature of assay [5]: Inhibition of binding to N-terminal p85 SH2 domain.

pIC50: −log10 of the molar value.

T1 sequence (P62993 whole entry, the tested form may be a part): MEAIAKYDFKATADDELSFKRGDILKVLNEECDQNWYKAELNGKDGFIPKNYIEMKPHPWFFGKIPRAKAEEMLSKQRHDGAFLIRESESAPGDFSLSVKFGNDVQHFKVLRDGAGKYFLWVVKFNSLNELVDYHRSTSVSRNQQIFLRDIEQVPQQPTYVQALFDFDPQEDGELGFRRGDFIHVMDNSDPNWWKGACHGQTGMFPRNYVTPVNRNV
Chain of Tyrosine-protein kinase Lck (P06239 whole entry, the tested form may be a part): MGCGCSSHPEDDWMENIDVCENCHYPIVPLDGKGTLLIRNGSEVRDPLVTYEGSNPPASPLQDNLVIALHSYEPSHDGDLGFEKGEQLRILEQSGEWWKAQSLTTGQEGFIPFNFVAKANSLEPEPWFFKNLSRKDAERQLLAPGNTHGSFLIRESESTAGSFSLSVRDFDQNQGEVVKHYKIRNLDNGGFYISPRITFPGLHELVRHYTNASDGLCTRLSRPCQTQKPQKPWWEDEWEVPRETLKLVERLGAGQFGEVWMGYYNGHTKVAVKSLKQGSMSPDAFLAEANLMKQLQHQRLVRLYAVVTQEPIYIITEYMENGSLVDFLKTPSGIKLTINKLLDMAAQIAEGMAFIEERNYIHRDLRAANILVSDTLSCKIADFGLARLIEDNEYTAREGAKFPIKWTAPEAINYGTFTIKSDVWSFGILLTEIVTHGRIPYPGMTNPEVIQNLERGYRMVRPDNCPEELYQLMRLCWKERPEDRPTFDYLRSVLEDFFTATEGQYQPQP

`NC(=O)C[C@H](NC(=O)C1(NC(=O)[C@H](Cc2ccc(OP(=O)(O)O)cc2)NC(=O)OCc2cccc(N)c2)CCCC1)C(N)=O` showed a pIC50 in assay [1] of 7.64. In turn, `CC(C)(NC(=O)[C@@H](N)Cc1ccc(OP(=O)(O)O)c(N)c1)C(=O)N[C@@H](CC(N)=O)C(N)=O` gave a pIC50 in assay [1] of 6.69. This pIC50 lies 0.95 log units lower than the previous one. As for `NC(=O)C[C@H](NC(=O)C1(NC(=O)[C@H](Cc2ccc(OP(=O)(O)O)cc2)NC(=O)OCc2cccc(N)c2)CC1)C(N)=O`, the negative-log IC50 (pIC50) in assay [1] is 6.91. In turn, `NC(=O)C[C@H](NC(=O)C1(NC(=O)[C@H](Cc2ccc(OP(=O)(O)O)cc2)NC(=O)OCc2cccc(N)c2)Cc2ccccc2C1)C(N)=O` had a negative logarithm of the IC50 (pIC50) in assay [1] of 6.85.

On to `NC(=O)C[C@H](NC(=O)C1(NC(=O)[C@@H](N)Cc2ccc(OP(=O)(O)O)c(N)c2)CCCCC1)C(N)=O`, for which the pIC50 in assay [2] is 8.40; in assay [1], 9.00; in assay [3], 8.20; in assay [4], less than 5.30; in assay [5], 6.01.

In general, pIC50 refers to the IC50 on a negative log10 scale, so that one unit is a factor of ten.

The values are drawn from ChEMBL document CHEMBL1131223, “Potent antagonists of the SH2 domain of Grb2: optimization of the X+1 position of 3-amino-Z-Tyr(PO3H2)-X+1-Asn-NH2” (J Med Chem, 1998).
